According to publication PMC10010340, “The Wnt Pathway Inhibitor RXC004 Blocks Tumor Growth and Reverses Immune Evasion in Wnt Ligand–dependent Cancer Models” (Cancer Research Communications, 2022):

What was measured:
[1] = tested on: functional Wnt production from mouse L-Wnt3a cells; assay: Wnt reporter assay (L-Wnt3a conditioned media on LEADING LIGHT Wnt Reporter Cell Line); type: cell-based
Experimental: Reporter Assay: Media from L-Wnt3a cells (L cells overexpressing Wnt3a; ATCC CRL-2647) treated with a concentration-series of RXC004, was incubated with the LEADING LIGHT Wnt Reporter Cell Line (Enzo life sciences; ENZ-61002-0001). Luciferase was detected using the ONE-Glo Luciferase Assay System (Promega E6120), data were normalized to DMSO-treated controls and IC50 values determined. Recombinant Wnt3a (Bio-Techne #1324-WN-010) was used at 1 μg/mL. β-catenin expression: L-Wnt3a cells were treated with RXC004 (100 nmol/L) or DMSO (0.1%) for 24 hours. Cellular β-catenin protein levels were quantified by staining with anti-β-catenin (AlexaFluor488, BD 562505) and assessment using an Agilent Novocyte-3000 flow cytometer.

[2] = Permeability in Caco-2 cells; type: in vitro ADME; details: human
Experimental: Permeability of RXC004 was assessed in MDR1-MDCKII (Netherlands Cancer Institute) and Caco-2 cells (Merck Life Sciences). RXC004 (10 μmol/L) was added to either apical or basolateral chamber for 2 hours at 37°C, then an aliquot from the opposite side of the monolayer was removed and quantified by LC/MS-MS. Apparent permeability (Papp) was calculated according to standard practice ([20]).

Hepatocyte stability [3] = type: in vitro ADME, mouse (CD1); details: Mouse, 1 μmol/L
Experimental: (§1) Metabolic stability: liver microsomes and hepatocytes from human, mouse (CD1), rat (Sprague Dawley) and dog (Beagle) were obtained from Invitrogen. RXC004 (1 μmol/L) was incubated at 37°C with microsomes (0.5 mg · mL^−1) or hepatocytes (0.5 × 10^6 cells · mL^−1). Aliquots were removed at 0–45 minutes and RXC004 concentrations determined by LC/MS-MS analysis. Half-life (T1/2) and intrinsic clearance (CLint) were calculated as described in ref. [18].

Hepatocyte stability [4] = type: in vitro ADME, dog (Beagle); details: Dog, 1 μmol/L
Experimental: as §1

In vivo pharmacokinetics = details: beagle, dog
Experimental: In vivo pharmacokinetics: RXC004 was dosed to male Sprague Dawley rats, male CD1 mice or dog (beagle) by intravenous and oral routes. Bioanalysis of blood and plasma samples was performed by LC/MS-MS using a Waters TQS or TQMS mass spectrometer. Pharmacokinetic information was derived using WinNonlin software (Certara).

HPAF-II cells = assay: Cell-cycle analysis, phospho-Ser10 histone H3 flow cytometry; type: cell-based, human; details: 100 nmol/L, representative plot (DMSO 2.03%)
Experimental: For concentration–response effects on gene expression, Single-Shot Cell Lysis kit (Bio-Rad #172-5080) was used for RNA extraction, data were normalized to DMSO-treated controls, and IC50 values determined. For cell-cycle analysis, the cancer cell line panel was treated with RXC004 (100 nmol/L) or DMSO (0.1%) for 3 days. Cell-cycle profiles were determined by staining with propidium iodide (Thermo Fisher Scientific #P3566) and phospho-Ser10-Histone-H3 (AlexaFluor-647, BioLegend #650806), and quantified using an Agilent Novocyte-3000 flow cytometer. For in vitro growth curve analysis, HPAF-II and SNU-1411 cells were seeded in 96-well plates at 2,000 cells/well and imaged on the IncuCyte (Sartorius) at 10× magnification with 4 fields of view per well. Total cell object count over time was calculated using the Adherent Cell-by-Cell analysis module.

SNU-1411 xenograft [5] = assay: Xenograft pilot study; type: in vivo, mouse (NOD-SCID); details: SNU-1411, 1.5 mg/kg twice daily oral
Experimental: The in vivo pilot studies were performed at Axis Bioservices. HPAF-II (5 × 10^6 cells; athymic nude mice), AsPC1 (3 × 10^6 cells; athymic nude mice), and SNU-1411 (1 × 10^7 cells; NOD-SCID mice) were implanted bilaterally, subcutaneously, whereas HCT116 (3 × 10^6 cells; athymic nude mice) were implanted in a single flank. Animals were randomized into the indicated groups and treatment initiated once tumor volumes reached approximately 100–150 mm^3. Dosing was either 1.5 mg/kg twice daily RXC004 for 7–13 days then once daily for the remainder of study (up to 29 days), or 28 days 1.5 mg/kg twice daily RXC004 for HCT116. In these and all other animal studies, unless otherwise specified, RXC004 was dosed orally in 0.5% carboxymethylcellulose + 0.1% Tween-80. For AsPC1, an ascites model, end of study tumor weight (mg) was measured. A total of 12 hours after the final dose, RNA was extracted [GenElute RNA isolation kit (#RTN70, Sigma)] from snap frozen tumor for qRT-PCR expression analysis of Axin2, c-Myc, RNF43, MUC4, and MUC5AC relative to appropriate housekeepers.

SNU-1411 xenograft [6] = assay: SNU-1411 xenograft dose-response study; type: in vivo, mouse (NOD-SCID); details: day 19; 1.5 and 5 mg/kg once daily, 1.5 mg/kg twice daily continuous or 5-day on/2-day off
Experimental: To explore dose–response effects in vivo, SNU-1411 (1 × 10^7 cells) were implanted into NOD-SCID mice subcutaneously at Axis Bioservices. Animals were randomized into the indicated groups and oral dosing of RXC004 was initiated when tumors reached approximately 200 mm^3. Tumor volume measurements were taken at day 19, n ≥9 per group. Pharmacokinetic/pharmacodynamic analysis in SNU1411/NOD-SCID mice was performed in a separate study at Axis Biosciences, with tissue and plasma extracted for assessments after 7 days of RXC004 dosing. Tumor was divided into two sections; one section snap frozen and the other processed by FFPE. RXC004 levels were determined in snap frozen tumor and blood samples by LC/MS-MS. Expression analysis of the indicated genes was performed on snap frozen tumor as described above. Serial FFPE tumor sections were stained with H&E, anti-Ki67 (Abcam #Ab15580) or the dual mucin stain Alcian-blue/periodic acid shift (AB-PAS) at Histologix. IHC images were quantified using HALO software and modules (Indica Labs). The AB-PAS images were analyzed with the area quantification module on tumor area. […] The Ki67 images were analyzed with the multiplex IHC module and number of Ki67-positive cells were determined per mm^2 of total or differentiated tumor area.

## Cc1c(-c2ccnc(C(F)(F)F)c2)ncn1CC(=O)Nc1ccc(-c2cnccn2)cn1 [RXC004, 2-[5-methyl-4-[2-(trifluoromethyl)-4-pyridyl]imidazol-1-yl]-N-(5-pyrazin-2-yl-2-pyridyl)acetamide]
[1]; Mus musculus, L Wnt-3A, L-Wnt3a cells treated with concentration-series, read-out: IC50, β-catenin responsive luciferase reporter activated by conditioned media
  IC50: 64 pM
[1]; recombinant Wnt3a 1 μg/mL
  effect on downstream Wnt signaling (rescue by recombinant Wnt3a): no effect on downstream Wnt signaling
[2]; apical to basolateral, read-out: Caco-2 PappA-B
  Papp A→B at 2 h, 10 μmol/L: 23.6 ×10⁻⁶ cm/s
[2]; basolateral to apical, read-out: Caco-2 PappB-A
  Papp B→A at 2 h, 10 μmol/L: 21.8 ×10⁻⁶ cm/s
Hepatocyte stability [3]
  Hepatocyte stability: CLint: <3.0 μL minute^−^1 · 10^6 cells^−^1
Hepatocyte stability [4]
  Hepatocyte stability: CLint: 12.5 μL minute^−^1 · 10^6 cells^−^1
In vivo pharmacokinetics; dose i.v./p.o. 2/5 mg/kg, read-out: T½ (converted)
  half-life: 48 min
In vivo pharmacokinetics; intravenous, 2 mg/kg, dose i.v./p.o. 2/5 mg/kg
  clearance: 8.9 mL/min/kg
In vivo pharmacokinetics; intravenous, 2 mg/kg, dose i.v./p.o. 2/5 mg/kg, read-out: Vss
  Vd: 0.39 L/kg
In vivo pharmacokinetics; po, 5 mg/kg p.o.
  AUC(0-inf): 8.6 µM·h
  Cmax: 10.4 µM
In vivo pharmacokinetics; po, 5 mg/kg p.o., read-out: C24h (p.o.)
  concentration at 24 h: 0.012 µM
HPAF-II cells
  pH3+ (percentage phospho-Ser10 histone H3 positive cells): 0.28%
SNU-1411 xenograft [5]
  Wnt-responsive gene expression in tumor including c-Myc: inhibition of Wnt-responsive gene expression
  tumor growth: reduction in tumor growth
SNU-1411 xenograft [6]
  tumor volume: Significant reduction in tumor volume
